“Also recorded” adds a separate entry of the source.
How the values were obtained:
[1] = system: human cervical adenocarcinoma (HeLa); experiment: MTT cytotoxic / anti-proliferative assay, HeLa; type: cell-based
Description: (§1) The benxoxazepine derivative compound of the present disclosure was dissolved in DMSO to give a […] concentration. The DMSO concentration was less than 1.0% in all experiments and controls.
(§2) The evaluation of anti-proliferative activity was preformed to different cancer cells named human cervical adenocarcinoma (HeLa), adenocarcinoma human alveolar basal epithelial cells (A549), human breast cancer (MCF-7), colon adenocarcinoma Caco-2, compared with human fibroblast cell lines (F2). All cells were grown in Dulbecco's modified Eagle's minimal essential medium (DMEM), supplemented with 25 mM glucose, 10% inactivated fetal bovine serum (Flow, McLean, VA, USA), and 1% penicillin/streptomycin, and maintained at 37° C. in a humidified incubator with 5% CO2. The cells with 30-40 passages were used for further investigations.
(§3) Exponentially growing cells A549, HeLa, Caco-2, MCF-7, and normal fibroblast cell cells have been washed and seeded at 3×10^3 cells/well (100 μL/well) in 96 well microplates (Greiner, Germany). […] In vitro anti-proliferative activity was measured by the cell growth inhibition assay using 3-(4,5-dimethyl-thiazol-2-yl)-2,5-di-phenyltetrazolium bromide (MTT) assay according to the manufacturer's instructions (Promega Corporation, Madison, WI). Briefly, the assay measured the formation of blue formazan product as a result of the reduction of MTT by mitochondrial dehydrogenase, which indicates the normal function of mitochondria and cell viability. The amount of formazan was quantified using a microplate reader (Thermo Fisher Scientific, Waltham, MA, USA) and compared to the optical density obtained for the control (untreated) at 570 nm. The IC50 values were calculated according to the equation for Boltzmann sigmoidal concentration response curve using the nonlinear regression models (GraphPad, Prism Version 7, San Diego, CA, USA). The average of three replicates of IC50 values were calculated and mentioned in the present disclosure Table 1. […]

[2] = system: adenocarcinoma human alveolar basal epithelial cells (A549); experiment: MTT cytotoxic / anti-proliferative assay, A549; type: cell-based
Description: as §1, §2
(§4) Exponentially growing cells A549, HeLa, Caco-2, MCF-7, and normal fibroblast cell cells have been washed and seeded at 3×10^3 cells/well (100 μL/well) in 96 well microplates (Greiner, Germany). After 24 h, cells were confluent, and media was changed, and cells were incubated with the compound of the present disclosure (200-1 μg/mL) for 24 h. In vitro anti-proliferative activity was measured by the cell growth inhibition assay using 3-(4,5-dimethyl-thiazol-2-yl)-2,5-di-phenyltetrazolium bromide (MTT) assay according to the manufacturer's instructions (Promega Corporation, Madison, WI). Briefly, the assay measured the formation of blue formazan product as a result of the reduction of MTT by mitochondrial dehydrogenase, which indicates the normal function of mitochondria and cell viability. The amount of formazan was quantified using a microplate reader (Thermo Fisher Scientific, Waltham, MA, USA) and compared to the optical density obtained for the control (untreated) at 570 nm. The IC50 values were calculated according to the equation for Boltzmann sigmoidal concentration response curve using the nonlinear regression models (GraphPad, Prism Version 7, San Diego, CA, USA). The average of three replicates of IC50 values were calculated and mentioned in the present disclosure Table 1.
(§5) The anti-proliferative activity of the investigated compound of formula 1 of the present disclosure was expressed in IC50 values (the concentration needed to inhibit 50% of cell growth) compared to untreated cells (negative control).

[3] = system: colon adenocarcinoma Caco-2; experiment: MTT cytotoxic / anti-proliferative assay, Caco-2; type: cell-based, human; settings: MTT
[4] = system: human fibroblast cell lines (F2); experiment: MTT cytotoxic / anti-proliferative assay, normal fibroblast; type: cell-based
Description: as §1, §2, §3

[5] = system: human breast cancer (MCF-7); experiment: MTT cytotoxic / anti-proliferative assay, MCF-7; type: cell-based
Description: as §1, §2, §4, §5

[6] = system: release of TNF-α of HeLa cell lines; experiment: TNF-α release ELISA, HeLa; type: cell-based, human; settings: 1, 5, 10, 25, 50 μg/mL, overnight, ELISA of supernatant
Description: (§6) Non-treated cells were used as negative controls. […] All incubation steps were performed at room temperature.

[7] = system: release of TNF-α of A549 cell lines; experiment: TNF-α release ELISA, A549; type: cell-based, human; settings: 1, 5, 10, 25, 50 μg/mL, overnight, ELISA of supernatant
Description: as §6

[8] = system: release of TNF-α of MCF-7 cell lines; experiment: TNF-α release ELISA, MCF-7; type: cell-based, human; settings: 1, 5, 10, 25, 50 μg/mL, overnight, ELISA of supernatant
Description: as §6

[9] = system: release of IL-6 of normal fibroblast cell; experiment: IL-6 release ELISA, normal fibroblast; type: cell-based, human; settings: 1, 5, 10, 25, 50 μg/mL, overnight, ELISA of supernatant
Description: as §6

[10] = system: release of TNF-α of normal fibroblast cell; experiment: TNF-α release ELISA, normal fibroblast; type: cell-based, human; settings: 1, 5, 10, 25, 50 μg/mL, overnight, ELISA of supernatant
Description: as §6

[11] = system: release of IL-6 of A549 cell lines; experiment: IL-6 release ELISA, A549; type: cell-based, human; settings: 1, 5, 10, 25, 50 μg/mL, overnight, ELISA of supernatant
Description: as §6

[12] = MTT cytotoxic / anti-proliferative assay, Caco-2; type: cell-based, human; settings: human; calculated SI for cancer cell Caco-2; SI higher than 1.0 considered selective to cancer cell; read-out: Selectivity index (SI) Caco-2
[13] = system: release of IL-6 of HeLa cell lines; experiment: IL-6 release ELISA, HeLa; type: cell-based, human; settings: 1, 5, 10, 25, 50 μg/mL, overnight, ELISA of supernatant
Description: as §6

[14] = system: release of IL-6 of MCF-7 cell lines; experiment: IL-6 release ELISA, MCF-7; type: cell-based, human; settings: 1, 5, 10, 25, 50 μg/mL, overnight, ELISA of supernatant
Description: as §6

[15] = system: release of TNF-α of Caco-2 cell lines; experiment: TNF-α release ELISA, Caco-2; type: cell-based, human; settings: 1, 5, 10, 25, 50 μg/mL, overnight, ELISA of supernatant
Description: as §6

[16] = 24 h incubation, average of three replicates
[17] = MTT, 24 h incubation, average of three replicates

SMILES: C[S+](C)[O-] [DMSO %, dimethyl sulfoxide]
- IC50 HeLa (DMSO %) ([1]; DMSO, value as % DMSO): 0.15 ± 0.02%
- IC50 A549 (DMSO %) ([2]; MTT, DMSO, value as % DMSO): 0.33 ± 0.05%
- IC50 Caco-2 (DMSO %) ([3]; DMSO, value as % DMSO): 23.40 ± 3.20%
- IC50 Fibroblast (DMSO %) ([4]; DMSO, value as % DMSO): 0.13 ± 0.02%
- IC50 MCF-7 (DMSO %) ([5]; MTT, DMSO, value as % DMSO): 0.097 ± 0.02%

SMILES: N.N.[Cl][Pt][Cl] [Cisplatin, cisplatin, reference compound]
- effect on the release of TNF-α, HeLa [6]: release TNF-α
- IC50 HeLa [1, 16]: 0.13 µg/mL
- IC50 A549 [2, 17]: 3.13 ± 0.53 µg/mL
- effect on the release of TNF-α, A549 [7]: release TNF-α
- effect on the release of TNF-α, MCF-7 [8]: release TNF-α
- IC50 Fibroblast [4, 16]: 2.83 ± 0.12 µg/mL
- IC50 MCF-7 [5, 17]: 1.51 ± 0.10 µg/mL
- effect on the release of IL-6, normal fibroblast cells [9]: not able to induce the release
- effect on the release of TNF-α, normal fibroblast cells [10]: not able to induce the release

SMILES: c1ccc2c3c(ccc2c1)OCCn1c-3nc2ccccc21 [compound of the general Formula (I)]
- IC50 ([1]; Homo sapiens, HeLa, 24 h incubation, average of three replicates): 0.003 µg/mL
- IC50 ([2]; Homo sapiens, A549, MTT, 24 h incubation, average of three replicates): 15.7 ± 0.54 µg/mL
- Selectivity index (SI) A549 ([2]; calculated SI for cancer cell A549, SI higher than 1.0 considered selective to cancer cell): 1.27
- effect on the release of IL-6, A549 [11]: stimulated the release of IL-6
- effect on the release of IL-6, A549 ([11]; listed as tested compound): able to stimulate the release of IL-6
- IC50 ([3]; Homo sapiens, Caco-2, 24 h incubation, average of three replicates): 41.3 µg/mL
- selectivity ratio at 24 h [12]: 0.48
- IC50 ([4]; Homo sapiens, Fibroblast, 24 h incubation, average of three replicates): 19.9 ± 1.4 µg/mL
- effect on the release of IL-6, HeLa [13]: stimulated the release of IL-6
- effect on the release of IL-6, HeLa ([13]; listed as tested compound): able to stimulate the release of IL-6
- IC50 ([5]; Homo sapiens, MCF7, MTT, 24 h incubation, average of three replicates): 17.6 ± 0.72 µg/mL
- Selectivity index (SI) MCF-7 ([5]; calculated SI for cancer cell MCF-7, SI higher than 1.0 considered selective to cancer cell): 1.13
- effect on the release of IL-6, normal fibroblast cells ([9]; listed as tested compound): no effect; also recorded: not able to induce the release
- effect on the release of IL-6, MCF-7 [14]: stimulated the release of IL-6
- effect on the release of IL-6, MCF-7 ([14]; listed as tested compound): able to stimulate the release of IL-6
- effect on the release of TNF-α, Caco-2 [15]: only 50 μg/mL concentration was able to stimulate Caco-2 cell lines to significantly release TNF-α
- effect on the release of TNF-α, Caco-2 ([15]; listed as tested compound): able to stimulate Caco-2 cell lines to significantly release TNF-α when treated with 50 μg/mL concentration only
- effect on the release of TNF-α, normal fibroblast cells [10]: not able to induce the release

Reference: patent US20240358713A1, “PHARMCAEUTICAL COMPOSITION CONTAINING BENZOXAZEPINE DERIVATIVES, AND A METHOD FOR TREATING CANCER” (Yarmouk University, priority 2023, published 2024)
